Test results from the NIST ThermoML archive (doi:10.1021/je060271a).
Numbers after ± are expanded uncertainties.

Conditions: 323.15 K, Liquid, Vibrating tube method

## CCCCCC(=O)OCC(COC(=O)CCCCC)(COC(=O)CCCCC)COC(=O)CCCCC [pentaerythritol tetrahexanoate]
1417.8 kPa
  mass density: 973.7 ± 1.2 kg/m3
1423 kPa
  mass density: 973.6 ± 1.2 kg/m3
1428.2 kPa
  mass density: 973.6 ± 1.2 kg/m3
1434.7 kPa
  mass density: 973.7 ± 1.2 kg/m3
1469.9 kPa
  mass density: 973.8 ± 1.2 kg/m3
1475.5 kPa
  mass density: 973.7 ± 1.2 kg/m3
1482.4 kPa
  mass density: 973.8 ± 1.2 kg/m3
1487.6 kPa
  mass density: 973.7 ± 1.2 kg/m3
1494.2 kPa
  mass density: 973.8 ± 1.2 kg/m3
1505.5 kPa
  mass density: 973.8 ± 1.2 kg/m3
1510.7 kPa
  mass density: 973.7 ± 1.2 kg/m3
1517 kPa
  mass density: 973.8 ± 1.2 kg/m3
1522.7 kPa
  mass density: 973.9 ± 1.2 kg/m3
1529.6 kPa
  mass density: 973.7 ± 1.2 kg/m3
1536.8 kPa
  mass density: 973.7 ± 1.2 kg/m3
1600 kPa
  mass density: 973.8 ± 1.2 kg/m3
1606.9 kPa
  mass density: 973.8 ± 1.2 kg/m3
1612.8 kPa
  mass density: 973.9 ± 1.2 kg/m3
1619 kPa
  mass density: 973.7 ± 1.2 kg/m3
1626.3 kPa
  mass density: 973.9 ± 1.2 kg/m3
1632.1 kPa
  mass density: 973.7 ± 1.2 kg/m3
1639.4 kPa
  mass density: 973.9 ± 1.2 kg/m3
1645.6 kPa
  mass density: 973.8 ± 1.2 kg/m3
1653.1 kPa
  mass density: 973.9 ± 1.2 kg/m3
1660 kPa
  mass density: 973.9 ± 1.2 kg/m3
1667 kPa
  mass density: 973.8 ± 1.2 kg/m3
1674.8 kPa
  mass density: 973.9 ± 1.2 kg/m3
1682.8 kPa
  mass density: 973.8 ± 1.2 kg/m3
1689 kPa
  mass density: 973.9 ± 1.2 kg/m3
1695.8 kPa
  mass density: 973.9 ± 1.2 kg/m3
1703.9 kPa
  mass density: 974 ± 1.2 kg/m3
1710.5 kPa
  mass density: 973.9 ± 1.2 kg/m3
1718.3 kPa
  mass density: 974 ± 1.2 kg/m3
1725.1 kPa
  mass density: 973.9 ± 1.2 kg/m3
1732.7 kPa
  mass density: 973.7 ± 1.2 kg/m3
1739.2 kPa
  mass density: 973.8 ± 1.2 kg/m3
1747.3 kPa
  mass density: 973.9 ± 1.2 kg/m3
1753.9 kPa
  mass density: 973.9 ± 1.2 kg/m3
1761.9 kPa
  mass density: 974 ± 1.2 kg/m3
1770.6 kPa
  mass density: 973.9 ± 1.2 kg/m3
1777.5 kPa
  mass density: 974 ± 1.2 kg/m3
1896.8 kPa
  mass density: 974 ± 1.2 kg/m3
1906.3 kPa
  mass density: 974 ± 1.2 kg/m3
1914.3 kPa
  mass density: 974.1 ± 1.2 kg/m3
1923.6 kPa
  mass density: 973.9 ± 1.2 kg/m3
1931.8 kPa
  mass density: 974 ± 1.2 kg/m3
1940.3 kPa
  mass density: 974 ± 1.2 kg/m3
1947.8 kPa
  mass density: 974 ± 1.2 kg/m3
1956.8 kPa
  mass density: 974.1 ± 1.2 kg/m3
1966 kPa
  mass density: 974 ± 1.2 kg/m3
1973.3 kPa
  mass density: 974 ± 1.2 kg/m3
1981.3 kPa
  mass density: 974.1 ± 1.2 kg/m3
1990.8 kPa
  mass density: 974.2 ± 1.2 kg/m3
2115.6 kPa
  mass density: 974 ± 1.2 kg/m3
2124.4 kPa
  mass density: 974.1 ± 1.2 kg/m3
2134.6 kPa
  mass density: 974.2 ± 1.2 kg/m3
2174 kPa
  mass density: 974.2 ± 1.2 kg/m3
2184.9 kPa
  mass density: 974.2 ± 1.2 kg/m3
2193.8 kPa
  mass density: 974.2 ± 1.2 kg/m3
2203.2 kPa
  mass density: 974.3 ± 1.2 kg/m3
2214.3 kPa
  mass density: 974.2 ± 1.2 kg/m3
2223.5 kPa
  mass density: 974.3 ± 1.2 kg/m3
2234.2 kPa
  mass density: 974.3 ± 1.2 kg/m3
2245.5 kPa
  mass density: 974.4 ± 1.2 kg/m3
2255 kPa
  mass density: 974.4 ± 1.2 kg/m3
2264.6 kPa
  mass density: 974.2 ± 1.2 kg/m3
2495.1 kPa
  mass density: 974.6 ± 1.2 kg/m3
2505.3 kPa
  mass density: 974.6 ± 1.2 kg/m3
2517.8 kPa
  mass density: 974.5 ± 1.2 kg/m3
2528.6 kPa
  mass density: 974.4 ± 1.2 kg/m3
2541.1 kPa
  mass density: 974.5 ± 1.2 kg/m3
2553.7 kPa
  mass density: 974.6 ± 1.2 kg/m3
2564.1 kPa
  mass density: 974.4 ± 1.2 kg/m3
2574.7 kPa
  mass density: 974.3 ± 1.2 kg/m3
2587.7 kPa
  mass density: 974.5 ± 1.2 kg/m3
2599.7 kPa
  mass density: 974.4 ± 1.2 kg/m3
2609.9 kPa
  mass density: 974.6 ± 1.2 kg/m3
2622.2 kPa
  mass density: 974.5 ± 1.2 kg/m3
2632.1 kPa
  mass density: 974.6 ± 1.2 kg/m3
2642.3 kPa
  mass density: 974.5 ± 1.2 kg/m3
2654.5 kPa
  mass density: 974.6 ± 1.2 kg/m3
2664.9 kPa
  mass density: 974.6 ± 1.2 kg/m3
2676.8 kPa
  mass density: 974.6 ± 1.2 kg/m3
2689.2 kPa
  mass density: 974.6 ± 1.2 kg/m3
2699.9 kPa
  mass density: 974.4 ± 1.2 kg/m3
2710 kPa
  mass density: 974.6 ± 1.2 kg/m3
2722.3 kPa
  mass density: 974.6 ± 1.2 kg/m3
2732.8 kPa
  mass density: 974.6 ± 1.2 kg/m3
2745.2 kPa
  mass density: 974.6 ± 1.2 kg/m3
2758 kPa
  mass density: 974.5 ± 1.2 kg/m3
2768.6 kPa
  mass density: 974.7 ± 1.2 kg/m3
2779.1 kPa
  mass density: 974.7 ± 1.2 kg/m3
2791.8 kPa
  mass density: 974.6 ± 1.2 kg/m3
2801.9 kPa
  mass density: 974.7 ± 1.2 kg/m3
2814.5 kPa
  mass density: 974.7 ± 1.2 kg/m3
2827.5 kPa
  mass density: 974.6 ± 1.2 kg/m3
2837.8 kPa
  mass density: 974.7 ± 1.2 kg/m3
2849 kPa
  mass density: 974.6 ± 1.2 kg/m3
2862 kPa
  mass density: 974.6 ± 1.2 kg/m3
2872.9 kPa
  mass density: 974.7 ± 1.2 kg/m3
2885.9 kPa
  mass density: 974.7 ± 1.2 kg/m3
2910.2 kPa
  mass density: 974.8 ± 1.2 kg/m3
2921.8 kPa
  mass density: 974.6 ± 1.2 kg/m3
2946.6 kPa
  mass density: 974.8 ± 1.2 kg/m3
2960 kPa
  mass density: 974.8 ± 1.2 kg/m3
3369.6 kPa
  mass density: 975.1 ± 1.2 kg/m3
3401.3 kPa
  mass density: 975.1 ± 1.2 kg/m3
3416.4 kPa
  mass density: 975.1 ± 1.2 kg/m3
3430.9 kPa
  mass density: 975.1 ± 1.2 kg/m3
3448.4 kPa
  mass density: 975.1 ± 1.2 kg/m3
3481 kPa
  mass density: 975.1 ± 1.2 kg/m3
3512.7 kPa
  mass density: 975.1 ± 1.2 kg/m3
3527.3 kPa
  mass density: 975.1 ± 1.2 kg/m3
3544.2 kPa
  mass density: 975.1 ± 1.2 kg/m3
3557.7 kPa
  mass density: 975.2 ± 1.2 kg/m3
3574.4 kPa
  mass density: 975.2 ± 1.2 kg/m3
3588.4 kPa
  mass density: 975.2 ± 1.2 kg/m3
3605 kPa
  mass density: 975.1 ± 1.2 kg/m3
3619.2 kPa
  mass density: 975.1 ± 1.2 kg/m3
3805.2 kPa
  mass density: 975.3 ± 1.2 kg/m3
3820 kPa
  mass density: 975.3 ± 1.2 kg/m3
3837.5 kPa
  mass density: 975.4 ± 1.2 kg/m3
3851.8 kPa
  mass density: 975.4 ± 1.2 kg/m3
3869.3 kPa
  mass density: 975.5 ± 1.2 kg/m3
3886.8 kPa
  mass density: 975.5 ± 1.2 kg/m3
3901.9 kPa
  mass density: 975.4 ± 1.2 kg/m3
3917 kPa
  mass density: 975.4 ± 1.2 kg/m3
3935.3 kPa
  mass density: 975.5 ± 1.2 kg/m3
3950.4 kPa
  mass density: 975.4 ± 1.2 kg/m3
3968.8 kPa
  mass density: 975.5 ± 1.2 kg/m3
3984.3 kPa
  mass density: 975.5 ± 1.2 kg/m3
4002.9 kPa
  mass density: 975.4 ± 1.2 kg/m3
4018.6 kPa
  mass density: 975.5 ± 1.2 kg/m3
4034.4 kPa
  mass density: 975.4 ± 1.2 kg/m3
4138.3 kPa
  mass density: 975.6 ± 1.2 kg/m3
4157.9 kPa
  mass density: 975.5 ± 1.2 kg/m3
4209.5 kPa
  mass density: 975.6 ± 1.2 kg/m3
4228.7 kPa
  mass density: 975.6 ± 1.2 kg/m3
4245.5 kPa
  mass density: 975.7 ± 1.2 kg/m3
4265.2 kPa
  mass density: 975.6 ± 1.2 kg/m3
4281.8 kPa
  mass density: 975.7 ± 1.2 kg/m3
4301.8 kPa
  mass density: 975.7 ± 1.2 kg/m3
4319.1 kPa
  mass density: 975.8 ± 1.2 kg/m3
4339.5 kPa
  mass density: 975.8 ± 1.2 kg/m3
